Calls of active or inactive are those of the source. The rule behind the calls is not given here.
Key:
RAW264.7 [1] = assay: Immunomodulatory activity in mouse RAW264.7 cells assessed as TNF alpha production at 1 to 1000 ng/ml after 18 hrs by ELISA method; assay type: functional, cell-based
RAW264.7 [2] = assay: Immunomodulatory activity in mouse RAW264.7 cells assessed as TNF alpha production at 1 to 1000 ng/ml after 18 hrs by ELISA method (reference value: 4.4 +/- 3.4 pg/ml); assay type: functional
RAW264.7 [3] = assay: Immunomodulatory activity in mouse RAW264.7 cells assessed as increase in TNF alpha production after 18 hrs by ELISA method (reference value: 4.4 +/- 3.4 pg/ml); assay type: functional

| SMILES | Activity (RAW264.7 [1]) | also measured |
| --- | --- | --- |
| C[C@@H](O)[C@@H]1O[C@@H](O[C@@H]2[C@@H](O)[C@H](Oc3ccc([N+](=O)[O-])cc3)O[C@H]2[C@H](O)CO)[C@H](O)[C@H]1O | inactive |  |
| CCCCCCCCO[C@@H]1O[C@@H]([C@H](O)CO)[C@H](O)[C@H]1O[C@H]1O[C@H]([C@@H](O)CO)[C@@H](O)[C@@H]1O[C@@H]1O[C@@H]([C@@H](O)CO)[C@H](O)[C@H]1O[C@@H]1O[C@@H]([C@@H](O)CO)[C@H](O)[C@H]1O (stereo in doubt) | Active |  |
| C[C@@H](O)[C@@H]1O[C@@H](O[C@H](CO)[C@@H]2O[C@@H](Oc3ccc([N+](=O)[O-])cc3)[C@H](O)[C@H]2O)[C@H](O)[C@H]1O | inactive |  |
| O=[N+]([O-])c1ccc(O[C@@H]2O[C@@H]([C@H](O)CO)[C@H](O)[C@H]2O[C@@H]2O[C@@H]([C@H](O)CO)[C@H](O)[C@H]2O[C@@H]2O[C@@H]([C@H](O)CO)[C@H](O)[C@H]2O)cc1 | Active |  |
| O=[N+]([O-])c1ccc(O[C@@H]2O[C@@H]([C@H](O)CO)[C@H](O)[C@H]2O[C@@H]2O[C@@H]([C@H](O)CO)[C@H](O)[C@H]2O)cc1 | Active |  |
| CCCCCCCCO[C@@H]1O[C@@H]([C@H](O)CO)[C@H](O)[C@H]1O[C@@H]1O[C@@H]([C@H](O)CO)[C@H](O)[C@H]1O[C@H]1O[C@H]([C@H](O)CO)[C@@H](O)[C@@H]1O[C@@H]1O[C@@H]([C@@H](O)CO)[C@H](O)[C@H]1O[C@H]1O[C@H]([C@@H](O)CO)[C@@H](O)[C@@H]1O (stereo in doubt) | Active |  |
| O=[N+]([O-])c1ccc(O[C@@H]2O[C@@H]([C@H](O)CF)[C@H](O)[C@H]2O[C@@H]2O[C@@H]([C@H](O)CF)[C@H](O)[C@H]2O)cc1 |  | Activity (RAW264.7 [2]): >200 pg/mL |
| CCCCCCCCO[C@H]1O[C@H]([C@@H](O)CO)[C@@H](O)[C@@H]1O[C@@H]1O[C@@H]([C@@H](O)CO)[C@H](O)[C@H]1O[C@@H]1O[C@@H]([C@@H](O)CO)[C@H](O)[C@H]1O (stereo in doubt) | Active |  |
| CCCCCCCCO[C@H]1O[C@H]([C@@H](O)CF)[C@@H](O)[C@@H]1O[C@@H]1O[C@@H]([C@@H](O)CO)[C@H](O)[C@H]1O[C@@H]1O[C@@H]([C@@H](O)CO)[C@H](O)[C@H]1O (stereo in doubt) | Active |  |
| C[C@@H](O)[C@@H]1O[C@@H](O[C@H]2[C@H](O[C@H]3[C@H](Oc4ccc([N+](=O)[O-])cc4)O[C@@H]([C@H](O)CO)[C@@H]3O)O[C@@H]([C@@H](C)O)[C@@H]2O)[C@H](O)[C@H]1O | Active |  |
| CCCCCCCCO[C@@H]1O[C@@H]([C@H](O)CF)[C@H](O)[C@H]1O[C@@H]1O[C@@H]([C@H](O)CF)[C@H](O)[C@H]1O |  | Activity (RAW264.7 [3]): 600 pg/mL |
| CCCCCCCCO[C@@H]1O[C@@H]([C@H](O)CO[C@@H]2O[C@@H]([C@H](O)CO)[C@H](O)[C@H]2O)[C@H](O)[C@H]1O | Active |  |
| CCCCCCCCO[C@@H]1O[C@@H]([C@H](O)CO)[C@H](O)[C@H]1O[C@@H]1O[C@@H]([C@H](O)CO)[C@H](O)[C@H]1O | Active |  |
| C[C@@H](O)[C@@H]1O[C@@H](O[C@H]2[C@H](Oc3ccc([N+](=O)[O-])cc3)O[C@@H]([C@H](O)CO)[C@@H]2O)[C@H](O)[C@H]1O | inactive |  |
| O=[N+]([O-])c1ccc(O[C@@H]2O[C@@H]([C@H](O)CO)[C@H](O)[C@H]2O[C@@H]2O[C@@H]([C@H](O)CF)[C@H](O)[C@H]2O)cc1 | inactive |  |
| C[C@@H](O)[C@@H]1O[C@@H](OC[C@@H](O)[C@@H]2O[C@@H](Oc3ccc([N+](=O)[O-])cc3)[C@H](O)[C@H]2O)[C@H](O)[C@H]1O | inactive |  |
| O=[N+]([O-])c1ccc(O[C@@H]2O[C@@H]([C@H](O)CO[C@@H]3O[C@@H]([C@H](O)CF)[C@H](O)[C@H]3O)[C@H](O)[C@H]2O)cc1 | inactive |  |
| CCCCCCCCO[C@H]1O[C@H]([C@H](C)O)[C@@H](O)[C@@H]1O[C@@H]1O[C@@H]([C@@H](O)CO)[C@H](O)[C@H]1O[C@@H]1O[C@@H]([C@@H](O)CO)[C@H](O)[C@H]1O (stereo in doubt) | Active |  |
